Data taken from patent publication US20090137499A1, “BENZYLPHENYL GLUCOPYRANOSIDE DERIVATIVE” (priority 2006, published 2009).
pIC50: −log10 of the molar value.

Molecular target: T1, human SGLT1 (Homo sapiens, UniProt P13866)
T1 construct: expressed in transfected cells
T1 sequence (P13866 1-664): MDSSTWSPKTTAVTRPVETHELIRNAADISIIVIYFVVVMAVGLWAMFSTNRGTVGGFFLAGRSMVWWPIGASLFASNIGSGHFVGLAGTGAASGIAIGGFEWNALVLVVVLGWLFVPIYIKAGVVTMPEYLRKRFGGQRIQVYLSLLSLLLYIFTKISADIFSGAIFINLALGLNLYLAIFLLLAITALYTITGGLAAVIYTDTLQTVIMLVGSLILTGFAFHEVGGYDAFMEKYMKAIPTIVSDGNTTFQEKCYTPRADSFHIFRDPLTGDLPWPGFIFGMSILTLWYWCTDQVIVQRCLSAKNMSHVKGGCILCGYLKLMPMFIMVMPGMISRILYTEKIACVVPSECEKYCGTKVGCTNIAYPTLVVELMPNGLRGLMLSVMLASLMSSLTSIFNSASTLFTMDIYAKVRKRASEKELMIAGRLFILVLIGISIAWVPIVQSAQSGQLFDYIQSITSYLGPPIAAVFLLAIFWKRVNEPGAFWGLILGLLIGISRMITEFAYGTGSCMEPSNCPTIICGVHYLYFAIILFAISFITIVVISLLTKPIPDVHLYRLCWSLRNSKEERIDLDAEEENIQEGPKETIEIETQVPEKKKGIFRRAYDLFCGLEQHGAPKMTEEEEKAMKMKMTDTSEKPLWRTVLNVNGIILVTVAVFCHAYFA
Test: Determination of SGLT1 inhibiting activity using human SGLT1 expressing cell ([14C]-α-methyl-D-glucopyranoside uptake)
Assay type: cell-based
Conditions: HEK-SGLT1 cells, 1 mM [14C]-α-methyl-D-glucopyranoside, 37° C., 30 min
Protocol: Determination of SGLT1 Inhibiting Activity Using Human SGLT1 Expressing Cell
1) Preparation of Vector Expressing Human SGLT1 cDNA in Animal Cell
Amplification was performed by PCR using human SGLT1 cDNA clone (Origene: Clone Number, TC119918; GenBank accession number, NM 000343) as a template. The sense oligonucleotide primer for PCR was 5′-[…]-3′ (Primer 1: SEQ ID NO: 1 in the sequence listing),
and the antisense oligonucleotide primer was 5′-[…]-3′ (Primer 2: SEQ ID NO: 2 in the sequence listing).
The PCR product was subjected to agarose electrophoresis, then a target DNA fragment was recovered from a single band corresponding to 2013 bases, digested with restriction enzymes HindIII and XhoI, and introduced into the HindIII/XhoI site of vector pCMV-Script (Stratagene) to obtain SGLT1 expressing plasmid pCMV-SGLT1. A HindIII/XhoI fragment was excised from pCMV-SGLT1 and introduced into the BamHI/XhoI site of pENTR1A (Gateway, Invitrogen) to prepare pENTR-SGLT1. Retrovirus vector pLPCX (Clontech) into which Gateway Vector Conversion System Cassette A (Invitrogen) was introduced was used as the destination plasmid to prepare SGLT1 expressing retrovirus vector pLPCX-SGLT1.
2) Establishment of Human SGLT1 Expressing Cell
The retrovirus pLPCX-SGLT1 obtained in 1) was transfected into integrin αvβ3 expressing HEK-293 cells and, the cells were treated with antibiotic G418 (brand name, Geneticin: Invitrogen) and puromycin (Clontech) to obtain HEK-SGLT1 cells stably expressing the target vector having resistance. The stably expressing cells were cultured and maintained in DMEM medium containing […] G418, […] puromycin, 3 mM KGT-1075, and 10% FBS.
3) Determination of SGLT1 Inhibiting Activity
HEK-SGLT1 cells were suspended at a density of 10^6 cells/mL in DMEM medium containing […] G418, 1 mg/ml puromycin, and 10% FBS, and 100 μL was seeded in each well of a type 1 collagen-coated 96-well culture plate (Corning). On the following day, the medium was replaced with a sugar uptake buffer (10 mM HEPES [pH 7.5], 5 mM Tris-HCl [pH 7.5], 140 mM NaCl, 2 mM KCl, 1 mM CaCl2, 1 mM MgCl2), and the cells were cultured with 1 mM [^14C]-α-methyl-D-glucopyranoside (0.1 mCi) and the test compound at 37° C. for 30 min and then washed 3 times with a washing buffer (10 mM HEPES [pH 7.5], 5 mM Tris-HCl [pH 7.5], 140 mM choline chloride, 2 mM KCl, 1 mM CaCl2, 1 mM MgCl2). 100 μL of liquid scintillation cocktail (brand name, Supermix: Perkin-Elmer) was added to each well of the 96-well plate and stirred for 10 min, and then radioactivity was determined with micro β (Perkin-Elmer), a type of liquid scintillation counter. The value as the sugar uptake activity was obtained by deducting the radioactivity in the presence of an excess amount of an SGLT1 inhibiting compound as the background from each measured value, the inhibition rate (%) was calculated from the control sugar uptake activity obtained without using a test compound and the sugar uptake activity obtained using a test compound having a predetermined the concentration, and concentrations of the test compound at which the sugar uptake activity was inhibited by 50% were assessed.

SMILES	pIC50
COc1ccc(Cc2cc(CO)cnc2O[C@@H]2O[C@H]([C@@H](C)O)[C@@H](O)[C@H](O)[C@H]2O)cc1 [Example 38, 3-(4-Methoxybenzyl)-5-hydroxymethylpyridin-2-yl 7-deoxy-D-glycero-β-D-gluco-heptopyranoside]	6.68
COc1ccc(Cc2c(C)cc(CO)cc2O[C@@H]2O[C@H]([C@@H](C)O)[C@@H](O)[C@H](O)[C@H]2O)cc1 [Example 94, 5-Hydroxymethyl-2-(4-methoxybenzyl)-3-methylphenyl 7-deoxy-D-glycero-β-D-gluco-heptopyranoside]	7.43
CCc1ccc(Cc2c(F)cc(CO)cc2O[C@@H]2O[C@H]([C@@H](C)O)[C@@H](O)[C@H](O)[C@H]2O)cc1 [Example 47, 2-(4-Ethylbenzyl)-3-fluoro-5-hydroxymethyl-phenyl 7-deoxy-D-glycero-β-D-gluco-heptopyranoside]	7.18
Cc1cc(CO)cc(O[C@@H]2O[C@H]([C@@H](C)O)[C@@H](O)[C@H](O)[C@H]2O)c1Cc1ccc(OC2CC2)cc1 [Example 96, 2-(4-Cyclopropoxybenzyl)-5-hydroxymethyl-3-methyl-phenyl 7-deoxy-D-glycero-β-D-gluco-heptopyranoside]	7.11
Cc1ccc(Cc2c(F)cc(CO)cc2O[C@@H]2O[C@H]([C@@H](C)O)[C@@H](O)[C@H](O)[C@H]2O)cc1 [Example 97, 3-Fluoro-5-hydroxymethyl-2-(4-methylbenzyl)phenyl 7-deoxy-D-glycero-β-D-gluco-heptopyranoside]	7.28
C[C@@H](O)[C@H]1O[C@@H](Oc2cc(CO)cc(F)c2Cc2ccc(OC3CC3)cc2)[C@H](O)[C@@H](O)[C@@H]1O [Example 63, 2-(4-Cyclopropoxybenzyl)-3-fluoro-5-hydroxymethyl-phenyl 7-deoxy-D-glycero-β-D-gluco-heptopyranoside]	7.17
CCc1ccc(Cc2ccc(N)cc2O[C@@H]2O[C@H](C(C)O)[C@@](C)(O)[C@H](O)[C@H]2O)cc1 (stereo partly drawn) [Example 41, 5-Amino-2-(4-ethylbenzyl)phenyl 4-C-methyl-7-deoxy-glycero-β-D-gluco-heptapyranoside]	7.06
COc1ccc(Cc2c(C)cc(C)cc2O[C@@H]2O[C@H]([C@@H](C)O)[C@@H](O)[C@H](O)[C@H]2O)cc1 [Example 77, 3,5-Dimethyl-2-(4-methoxybenzyl)phenyl 7-deoxy-D-glycero-β-D-gluco-heptopyranoside]	6.60
CCCOc1ccc(Cc2c(F)cc(CO)cc2O[C@@H]2O[C@H]([C@@H](C)O)[C@@H](O)[C@H](O)[C@H]2O)cc1 [Example 74, 3-Fluoro-5-hydroxymethyl-2-(4-propoxybenzyl)phenyl 7-deoxy-D-glycero-β-D-gluco-heptopyranoside]	6.55
COc1ccc(Cc2c(Cl)cc(C)cc2O[C@@H]2O[C@H]([C@@H](C)O)[C@@H](O)[C@H](O)[C@H]2O)cc1 [Example 43, 3-Chloro-5-methyl-2-(4-methoxybenzyl)phenyl 7-deoxy-D-glycero-β-D-gluco-heptopyranoside]	6.67
COc1ccc(Cc2ccc(CO)cc2O[C@@H]2O[C@H]([C@@H](C)O)[C@@H](O)[C@H](O)[C@H]2O)cc1 [Example 9, 2-(4-Methoxybenzyl)-5-hydroxymethylphenyl 7-deoxy-D-glycero-β-D-gluco-heptopyranoside]	7.27
CCOc1ccc(Cc2ccc(CO)cc2O[C@@H]2O[C@H]([C@@H](C)O)[C@@H](O)[C@H](O)[C@H]2O)cc1 [Example 93, 2-(4-Ethoxybenzyl)-5-hydroxymethylphenyl 7-deoxy-D-glycero-β-D-gluco-heptapyranoside]	6.37
CCOc1ccc(Cc2c(Cl)cc(CO)cc2O[C@@H]2O[C@H]([C@@H](C)O)[C@@H](O)[C@H](O)[C@H]2O)cc1 [Example 45, 3-Chloro-2-(4-ethoxybenzyl)-5-hydroxymethyl-phenyl 7-deoxy-D-glycero-β-D-gluco-heptopyranoside]	6.93
C[C@@H](O)[C@H]1O[C@@H](Oc2cc(CO)cc(F)c2Cc2ccc(C3CC3)cc2)[C@H](O)[C@@H](O)[C@@H]1O [Example 88, 2-(4-Cyclopropylbenzyl)-3-fluoro-5-hydroxymethylphenyl 7-deoxy-D-glycero-β-D-gluco-heptopyranoside]	7.29
CCc1ccc(Cc2c(C)cc(CO)cc2O[C@@H]2O[C@H]([C@@H](C)O)[C@@H](O)[C@H](O)[C@H]2O)cc1 [Example 89, 2-(4-Ethylbenzyl)-5-hydroxymethyl-3-methylphenyl 7-deoxy-D-glycero-β-D-gluco-heptopyranoside]	7.09
COc1ccc(Cc2ccc(CO)cc2O[C@@H]2O[C@H]([C@@H](C)O)[C@@H](O)[C@H](O)[C@H]2O)c(F)c1 [Example 82, 2-(2-Fluoro-4-methoxybenzyl)-5-hydroxymethylphenyl 7-deoxy-D-glycero-β-D-gluco-heptopyranoside]	6.66
COc1ccc(Cc2c(Cl)cccc2O[C@@H]2O[C@H]([C@@H](C)O)[C@@H](O)[C@H](O)[C@H]2O)cc1 [Example 42, 3-Chloro-2-(4-methoxybenzyl)phenyl 7-deoxy-D-glycero-β-D-gluco-heptopyranoside]	7.20
COc1ccc(Cc2c(Cl)cc(CO)cc2O[C@@H]2O[C@H]([C@H](C)O)[C@@H](O)[C@H](O)[C@H]2O)cc1 [Example 57, 3-Chloro-5-hydroxymethyl-2-(4-methoxybenzyl)phenyl 7-deoxy-L-glycero-β-D-gluco-heptopyranoside]	6.66
COc1ccc(Cc2ccc(CO)cc2O[C@@H]2O[C@H]([C@@H](C)O)[C@@H](O)[C@H](O)[C@H]2O)cc1F [Example 78, 2-(3-Fluoro-4-methoxybenzyl)-5-hydroxymethylphenyl 7-deoxy-D-glycero-β-D-gluco-heptopyranoside]	6.63
COc1ccc(Cc2c(OC)cc(CO)cc2O[C@@H]2O[C@H]([C@@H](C)O)[C@@H](O)[C@H](O)[C@H]2O)cc1 [Example 83, 5-Hydroxymethyl-3-methoxy-2-(4-methoxybenzyl)phenyl 7-deoxy-D-glycero-β-D-gluco-heptopyranoside]	6.85
C=Cc1cc(CO)cc(O[C@@H]2O[C@H]([C@@H](C)O)[C@@H](O)[C@H](O)[C@H]2O)c1Cc1ccc(OC)cc1 [Example 101, 5-Hydroxymethyl-2-(4-methoxybenzyl)-3-vinyl-phenyl 7-deoxy-D-glycero-β-D-gluco-heptopyranoside]	6.77
Cc1ccc(Cc2ccc(CO)cc2O[C@@H]2O[C@H]([C@@H](C)O)[C@@H](O)[C@H](O)[C@H]2O)cc1 [Example 98, 5-Hydroxymethyl-2-(4-methylbenzyl)phenyl 7-deoxy-D-glycero-β-D-gluco-heptapyranoside]	6.74
CCc1ccc(Cc2ccc(CCO)cc2O[C@@H]2O[C@H]([C@@H](C)O)[C@@H](O)[C@H](O)[C@H]2O)cc1 [Example 67, 2-(4-Ethylbenzyl)-5-(2-hydroxyethyl)phenyl 7-deoxy-D-glycero-β-D-gluco-heptopyranoside]	6.31
